Experimental data taken from patent US20100234238A1, “METHOD FOR PROFILING KINASE INHIBITORS” (Janssen Pharmaceutica N V, priority 2006, published 2010).

Test system: tyrosine kinase activity in lysates prepared from cell lines
Test: PAMCHIP96 tyrosine peptide array profiling of lysates of 27 cell lines in absence or presence of MTKI
Assay type: biochemical
Details: 5 μM
From the text: PAMGENE technology using the tyrosine peptide PAMCHIP96 allows the kinetic detection of the phosphorylation of 144 tyrosine peptides spotted onto a 3-dimensional porous well of a 96-well plate (www.pamgene.com). This technology can be used to measure the activity of purified kinases and the effects of kinase inhibitors thereon. Phosphotyrosine peptides are detected using a mix of fluorescently labeled anti-phosphotyrosine antibodies. Phosphorylation of peptides can be followed in real time due to the possibility of removing the reaction mix for a few seconds during the assay by a pumping mechanism to allow CCD camera detection of phosphopeptides bound to the fluorescent antibody. These consecutive datapoints (quantified spot images) generate a kinetic curve for each individual peptide, and allow for the calculation of initial velocities and endpoints associated with each individual peptide.
Cells cultured in appropriate medium in T175 flasks, treated with compound if necessary, are harvested at 70-90% confluency.
Media is removed, cells are washed with 10 ml ice cold PBS containing 0.1 mM NaVO4 and lysed in 1 ml of M-PER buffer (PIERCE) containing phosphatase and protease inhibitors (HALT, PIERCE). Cells are collected by scraping, and centrifuged for 10 minutes at 12 000×g. Supernatant lysates are filtered through a 0.2 micrometer filter (Anotop 0.2 μm anopore filter; Whatmann). Lysates are flash frozen in liquid nitrogen and stored at −80C.
Just prior to the PAMCHIP experiment, total protein content is quantitated in the lysates and lysates are diluted to 1 mg/ml in a total volume of 200 μl, with M-PER phosphatase and protease inhibitors (HALT, PIERCE). 10 μg of total lysate (corresponding to 10 μl) will be used per well on the PAMCHIP96.
To all 200 μl lysates 10 units of benzonase (Novagen) is added and lysates are further incubated for 30 min on ice and next centrifuged for 10 minutes at 12 000×g. The supernatant is then 1:1 diluted with compound or DMSO diluted to the appropriate concentration in water, and lysates are further incubated exactly 60 min on ice. Meanwhile, a PAMCHIP96 tyrosine peptide chip (PAMGENE) is blocked with 2% BSA (filtered through a 0.2 μm anopore filter; Whatmann) using the standard setting of a PAMSTATION96 (PAMGENE).
The composition of the kinase buffer is as follows: 1×ABL buffer (NEB), 0.5 mg/ml BSA (from 10 mg/ml NEB stock), 100 μM ATP (dissolved and diluted in 1×ABL buffer), 5 μg/ml PY20-FITC (ExAlpha Biologicals, azide-free preparation). A twofold concentrated kinase buffer is prepared chilled on ice, DMSO or compound is added as appropriate, and the solution is added 1:1 to the (compound treated) ice cold lysates, and immediately applied to a tyrosine peptide PAMCHIP96. The assay is run on a PAMSTATION96 according to standard procedures: after loading of the plate, solution is pumped once onto the wells, a first exposure is read (150 mSec) and then a kinetic reading program (reading every 5 min for 150 mSec) is run for 60 min. Lysates are run in 6 technical replicates for each condition; replicates are always applied horizontally next to each other to avoid vertical strip effects of the chip.
The data (spot images) are further quantified and linked to the peptide identities using EVOLVE PAMGRID software (PAMGENE). The quantified data are then fit to a curve using CurveFitHT software (PAMGENE) using the Vinip2 curve fitting algorithm, applied on the first 30 min of the assay; the initial velocity is derived at the first kinetic time point read. All subsequent data analyses were done on initial velocities (Vini) using the software packages Omniviz and R (Ihaka, R. and Gentlemen, R. (1996) R: a language for data analysis and graphics. J. Comput. Graph. Stat., 5, 299-314).
After replacing the Vini's lower than 0.1 by 0.1, all Vini's were log 2-transformed to approach normality.

COc1cc2ncnc3c2cc1OCCCCCN(C)Cc1ccc(Br)cc1N3 [MTKI, 4,6-ethanediylidenepyrimido[4,5-b][6,1,12]benzoxadiazacyclopentadecine, 17-bromo-8,9,10,11,12,13,14,19-octahydro-20-methoxy-13-methyl-]
ratio of initial velocity of peptide phosphorylation (H3255 lysate, PECA1_706_718_Y713): 0.68 | ratio of initial velocity of peptide phosphorylation (H3255 lysate, PGFRB_768_780_Y771/Y775/Y778): 0.12 | ratio of initial velocity of peptide phosphorylation (H3255 lysate, PLCG1_764_776_Y771): 0.97 | ratio of initial velocity of peptide phosphorylation (H3255 lysate, PRRX2_202_214_Y214): 0.67 | ratio of initial velocity of peptide phosphorylation (H3255 lysate, RASA1_453_465_Y460): 0.65 | ratio of initial velocity of peptide phosphorylation (H3255 lysate, STAT2_683_695_Y690): 0.72 | ratio of initial velocity of peptide phosphorylation (H3255 lysate, SYN1_2_14_S9): 0.70 | ratio of initial velocity of peptide phosphorylation (H3255 lysate, TYRO3_679_691_Y686): 0.47 | ratio of initial velocity of peptide phosphorylation (NCI-N87 lysate, CDK7_157_169_S164): 0.82 | ratio of initial velocity of peptide phosphorylation (NCI-N87 lysate, CREB1_122_134_Y134/S133): 0.82 | ratio of initial velocity of peptide phosphorylation (NCI-N87 lysate, DDR2_733_745_Y740): 0.95 | ratio of initial velocity of peptide phosphorylation (NCI-N87 lysate, ENOG_37_49_Y43): 0.91 | ratio of initial velocity of peptide phosphorylation (NCI-N87 lysate, MK10_216_228_T221/Y223): 0.73 | ratio of initial velocity of peptide phosphorylation (NCI-N87 lysate, NCF1_313_325_S315/S320): 0.89 | ratio of initial velocity of peptide phosphorylation (NCI-N87 lysate, NPT2_501_513_T508): 0.88 | ratio of initial velocity of peptide phosphorylation (NCI-N87 lysate, PECA1_706_718_Y713): 0.82 | ratio of initial velocity of peptide phosphorylation (NCI-N87 lysate, PGFRB_768_780_Y771/Y775/Y778): 0.32 | ratio of initial velocity of peptide phosphorylation (NCI-N87 lysate, PLCG1_764_776_Y771): 0.78 | ratio of initial velocity of peptide phosphorylation (NCI-N87 lysate, PRRX2_202_214_Y214): 0.82 | ratio of initial velocity of peptide phosphorylation (NCI-N87 lysate, RASA1_453_465_Y460): 0.59 | ratio of initial velocity of peptide phosphorylation (NCI-N87 lysate, STAT2_683_695_Y690): 0.83 | ratio of initial velocity of peptide phosphorylation (NCI-N87 lysate, SYN1_2_14_S9): 0.75 | ratio of initial velocity of peptide phosphorylation (NCI-N87 lysate, TYRO3_679_691_Y686): 0.85 | ratio of initial velocity of peptide phosphorylation (SKBR3 lysate, CDK7_157_169_S164): 0.97 | ratio of initial velocity of peptide phosphorylation (SKBR3 lysate, CREB1_122_134_Y134/S133): 0.99 | ratio of initial velocity of peptide phosphorylation (SKBR3 lysate, DDR2_733_745_Y740): 0.93 | ratio of initial velocity of peptide phosphorylation (SKBR3 lysate, MK10_216_228_T221/Y223): 0.68 | ratio of initial velocity of peptide phosphorylation (SKBR3 lysate, NCF1_313_325_S315/S320): 0.94 | ratio of initial velocity of peptide phosphorylation (SKBR3 lysate, NPT2_501_513_T508): 0.77 | ratio of initial velocity of peptide phosphorylation (SKBR3 lysate, PECA1_706_718_Y713): 0.68 | ratio of initial velocity of peptide phosphorylation (SKBR3 lysate, PLCG1_764_776_Y771): 0.75 | ratio of initial velocity of peptide phosphorylation (SKBR3 lysate, PRRX2_202_214_Y214): 0.75 | ratio of initial velocity of peptide phosphorylation (SKBR3 lysate, RASA1_453_465_Y460): 0.88 | ratio of initial velocity of peptide phosphorylation (SKBR3 lysate, STAT2_683_695_Y690): 0.81 | ratio of initial velocity of peptide phosphorylation (SKBR3 lysate, SYN1_2_14_S9): 1.03 | ratio of initial velocity of peptide phosphorylation (SKBR3 lysate, TYRO3_679_691_Y686): 0.90 | ratio of initial velocity of peptide phosphorylation (SNU484 lysate, CDK7_157_169_S164): 0.67 | ratio of initial velocity of peptide phosphorylation (SNU484 lysate, CREB1_122_134_Y134/S133): 0.70 | ratio of initial velocity of peptide phosphorylation (SNU484 lysate, DDR2_733_745_Y740): 0.75 | ratio of initial velocity of peptide phosphorylation (SNU484 lysate, ENOG_37_49_Y43): 0.68 | ratio of initial velocity of peptide phosphorylation (SNU484 lysate, MK10_216_228_T221/Y223): 0.72 | ratio of initial velocity of peptide phosphorylation (SNU484 lysate, NCF1_313_325_S315/S320): 0.80 | ratio of initial velocity of peptide phosphorylation (SNU484 lysate, NPT2_501_513_T508): 0.85 | ratio of initial velocity of peptide phosphorylation (SNU484 lysate, PECA1_706_718_Y713): 0.64 | ratio of initial velocity of peptide phosphorylation (SNU484 lysate, PLCG1_764_776_Y771): 0.70 | ratio of initial velocity of peptide phosphorylation (SNU484 lysate, PRRX2_202_214_Y214): 0.67 | ratio of initial velocity of peptide phosphorylation (SNU484 lysate, RASA1_453_465_Y460): 0.58 | ratio of initial velocity of peptide phosphorylation (SNU484 lysate, STAT2_683_695_Y690): 0.73 | ratio of initial velocity of peptide phosphorylation (SNU484 lysate, SYN1_2_14_S9): 0.67 | ratio of initial velocity of peptide phosphorylation (SNU484 lysate, TYRO3_679_691_Y686): 0.85
